Patent publication US20260223850A1, “SUBSTITUTED PYRROLIDONE COMPOUND, PREPARATION METHOD THEREFOR, COMPOSITION AND APPLICATION THEREOF” (QINGDAO KINGAGROOT CHEMICAL COMPOUND CO., LTD., priority 2023, published 2026)

Key:
[1] = tested on: Echinochloa crusgalli; assay: Seedling stage sealing experiment for water-seeding; type: in vivo; conditions: 120 g a.i./ha, 15 days, fresh weight control rate
[2] = tested on: Echinochloa phyllopogon; assay: as above; type: in vivo; conditions: 120 g a.i./ha, 15 days, fresh weight control rate
Summary of the method: (§1)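 Seeds sown on soil in pots kept moist in water-filled boxes, then sprayed with acetone/water compound solution at 120, 60, 30 and 15 g a.i./ha, in triplicate. Effect scored after 15 days in greenhouse as 0–9 levels of fresh-weight growth control, averaged.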

[3] = tested on: Apple ring rot; assay: Fungicidal activity assay, petri dish method; type: cell-based; conditions: 25° C., after 4 days; for Apple ring rot/% (mycelium growth inhibition rate): 400 ppm
Method: (§2) Petri dish method: The drug agent was dissolved with acetone, diluted with sterile water, and set to different levels of mass concentrations according to its activity. Under aseptic operation conditions, the pre-melted sterilized medium was quantitatively added into sterilized flasks according to the test treatment. The drug solutions were quantitatively aspirated in order from low to high concentrations, added into the above-mentioned flasks, and shaken well, respectively. Next, equal amounts of the solution were poured into 3 petri dishes with a diameter of 6 cm to prepare drug-containing plates with corresponding concentrations. In the test, a treatment without drugs was set up as the blank control and each treatment was repeated 3 times. A fungus cake was cut out from the edge of the colony of the cultured pathogens using a sterile hole puncher with a diameter of 3 mm under sterile conditions. The fungus cake was inoculated into the center of a drug-containing plate using an inoculator, with the mycelia facing up, covered with a plate cover, and cultured in an incubator at 25° C. The growth of pathogen mycelia was investigated according to the fungal growth in the blank control petri dishes after 4 days. The diameters of the colonies were measured with a caliper in millimeters (mm). Each colony was vertically measured for diameters once each by the cross method and then averaged. Based on the investigation results, the mycelium growth inhibition rate of each treatment concentration on the test target fungi was calculated in accordance with Equation (1) and (2). The unit was percentage (%).
(§3) [formula] • wherein: D—Increase of colony diameter; D1—Diameter of colony; D2—Diameter of fungus cake.
(§4) [formula] • wherein: I—Mycelium growth inhibition rate; D0—Increase of colony diameter of blank control; Dt—Increase of colony diameter of drug treatment.

[4] = tested on: Rice sheath blight; assay: Fungicidal activity assay, petri dish method; type: cell-based; conditions: 25° C., after 4 days; for Rice sheath blight/% (mycelium growth inhibition rate): 400 ppm
Method: as §2, §3, §4

[5] = tested on: weeds; assay: Activity assay of compositions, soil sealing treatment (S); type: in vivo; conditions: treatment S, A 15 g a.i./ha
From the text: (§5) The required active ingredient B was purchased from a reagent company or a technical material manufacturer or synthesized by a conventional method. The technical materials were all dissolved with acetone solvents and diluted with aqueous solution of 0.1% Tween® 80 emulsifier, which should be used immediately after dilution.
The test soil was quantitatively filled to ¾ of a pot, and then watered from the bottom of the pot to completely wet the soil to saturation. The seeds of the test weeds were accelerated to Just germinate, and then evenly and quantitatively broadcasted on the soil surface, covered with 0.5-1 cm soil according to the sizes of the seeds, and ready for use 72 hours after broadcasting.
Each treatment was repeated 4 times. Four pots were treated each time with 20 weed seeds per pot.
The seeds were planted in a 20 cm*30 cm square box. Water was added to 2-3 cm deep after sowing, then injected with the drug agent using a syringe, stirred evenly, and left to stand for 2 days to dry naturally. The soil was kept moist afterwards.
(§6) A method for investigating absolute numbers was employed. The whole seedlings of the survival weeds were cut along the soil surface with a blade, and the fresh weight of the weeds was weighed by an analytical balance. For dead weeds, the fresh weight thereof was considered zero.
(§7) The investigation was performed 21 days after the treatment for once in total.
(§8) The theoretical fresh weight inhibition rate of a mixed combination of each treatment was calculated by the Gowing method (E0═X+Y−X*Y/100), then compared with the measured inhibition rate (E) to evaluate the type of the combined action of the combination of the two on weeds. The combined action was a synergistic effect when E−E0 >10%; an antagonistic effect when E−E0<−10%; an additional effect when −10%≤E−E0≤10%. An optimal ratio was determined according to factors such as actual control effects, characteristics of herbicides, balance of the formulation, etc.

[6] = tested on: weeds; assay: Activity assay of compositions, post-emergence spray treatment of stems and leaves (F); type: in vivo; conditions: treatment F, A 30 g a.i./ha, 21 days after treatment
Method: as §5
Weeds were cultivated by the pot culture method. […] Weed seeds with plump and uniform grains were selected, soaked in lukewarm water at 25° C. for 6 hours, and accelerated to germinate in a 28° C. biochemical incubator (in darkness). The weed seeds that had just germinated were evenly placed on the surface of the soil and then covered with 0.5-1 cm soil according to the sizes of seeds.
The weeds were cultured in a controllable sunlight greenhouse at 20-30° C., in natural light and with relative humidity of 57%-72%.
Each treatment was repeated 4 times. Three pots with 20 weed seeds sowed per pot were treated each time.
The drug was applied once in total in the experiment. When at 1.5-2 leaf stage, the weeds were thinned out to maintain 10 strains per pot. Thirty strains were kept in each treatment and then continued to be cultured until the 3-4 leaf stage for further treatment.
The well-cultured test materials were evenly placed on a 0.5 m^2 platform and foliage-sprayed by the 3WP-2000-type walking spray tower at a dosage of […] and a spray pressure of 0.3 MPa. After all the drug solution was sprayed, the air valve was closed. And 30 seconds later, the door of the spray tower was opened, and the nutritional bowl was taken out. Next, the air valve was opened, and the spray tube was cleaned by spraying 50 mL of water. The test materials were transferred to and routinely cultured in a greenhouse after the treatment.
as §6, §7
as §8, with “etc. In the formula, X represents the fresh weight inhibition rate of the active ingredient A in a dosage of P; Y represents the fresh weight inhibition rate of the active ingredient B in a dosage of Q. The statistical results are shown in Table 6.” for “etc.”

[7] = tested on: Leptochloa chinensis; assay: Seedling stage sealing experiment for water-seeding; type: in vivo; conditions: 120 g a.i./ha, 15 days, fresh weight control rate
Summary of the method: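 Seeds sown in soil-filled bowls kept moist in water-filled boxes; compound in acetone diluted with water and spray-applied at 120, 60, 30 and 15 g a.i./ha, triplicate. After 15 days in greenhouse, fresh-weight growth control scored on a 0–9 scale (9 = dead, 0 = no effect), averaged.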

[8] = tested on: Huaidao (rice cultivar); assay: Seedling stage sealing experiment for water-seeding (crop safety); type: in vivo; conditions: 120 g a.i./ha, 15 days, fresh weight control rate; for Huaidao (rice cultivar) plant damage level: seedling stage sealing
Summary of the method: as §1

[9] = tested on: Tomato gray mold; assay: Fungicidal activity assay, petri dish method; type: cell-based; conditions: 25° C., after 4 days
Method: as §2, §3, §4

[10] = tested on: Mythimna separata; assay: Insecticidal activity assay, spraying method; type: in vivo; conditions: 500 ppm, 3rd instar, spray, 48 h after drug application
Method: (§9) Spraying method: the technical material was weighed and dissolved with acetone, and the drug liquid was diluted with distilled water to different concentrations. The 2nd instar Spodoptera frugiperda test insects or the 3rd instar Mythimna separata test insects reared indoors with consistent physiological conditions were selected. Ten test insects were picked into each petri dish. Two 2 cm-long corn leaves were placed in the petri dish and sprayed using a spray tower. Each dosage was repeated 3 times, with acetone of the corresponding concentration as a control. After drug application, the insects were transferred to and reared in a condition where the temperature was 25° C. and the humidity was 60%. The results were investigated 48 h after drug application and the death number per treatment was collected, respectively. The mortality was calculated in accordance with the following equation: Mortality (%)=(Number of dead insects/Number of test insects)×100.

[11] = tested on: Spodoptera frugiperda; assay: Insecticidal activity assay, spraying method; type: in vivo; conditions: 500 ppm, 2nd instar, spray, 48 h after drug application
Method: as §9

[12] = spray, seedling stage sealing for water-seeding

Structure (SMILES)	Echinochloa crusgalli activity level (growth control rate) ([1]; seedling stage sealing)	Echinochloa phyllopogon activity level (growth control rate) ([2]; seedling stage sealing)	Huaidao (rice cultivar) plant damage level [8]	Apple ring rot/% (mycelium growth inhibition rate) [3] [%]	Rice sheath blight/% (mycelium growth inhibition rate) [4] [%]	Tomato gray mold/% (mycelium growth inhibition rate) ([9]; 400 ppm) [%]	other results
Cc1cc(C)cc([C@H]2CN(C)C(=O)[C@@H]2C(=O)Nc2cnn(C)c2Cl)c1 [117′]	9	7 (Level 7: growth control rate greater than or equal to 80% and less than 90%)	–	–	–	–	inhibition at 400 ppm ([3]; 96 h, read-out: Apple ring rot/% (mycelium growth inhibition rate)): 55%; inhibition at 400 ppm ([4]; 96 h, read-out: Rice sheath blight/% (mycelium growth inhibition rate)): 66%; Control effect of A applied alone in a corresponding dose (%) ([5]; Alisma plantago-aquatica, 21 days after treatment): 29.6%; Control effect of A applied alone in a corresponding dose (%) ([5]; Paspalum distichum, 21 days after treatment): 45.7%; Control effect of A applied alone in a corresponding dose (%) ([5]; Rotala indica, fresh weight inhibition 21 days after treatment): 37.6%; Control effect of A applied alone in a corresponding dose (%) ([6]; Alisma plantago-aquatica): 24.8%; Control effect of A applied alone in a corresponding dose (%) ([6]; Paspalum distichum): 42.6%; Leptochloa chinensis activity level (growth control rate) [7]: 9
CN1C[C@H](c2ccc(C3CC3)cc2)[C@@H](C(=O)Nc2cnn(C)c2Cl)C1=O [259′]	5 (Level 5: growth control rate greater than or equal to 50% and less than 70%)	–	0	51	59	80	–
C=CCn1ncc(NC(=O)[C@H]2C(=O)N(C)C[C@@H]2c2cc(C)cc(C)c2)c1Cl [270′]	–	6 (Level 6: growth control rate greater than or equal to 70% and less than 80%)	0	–	61	51	Mythimna separata/% (mortality) [10]: 75%; Spodoptera frugiperda/% (mortality) [11]: 55%
CN1C[C@H](c2cc3ccccc3o2)[C@@H](C(=O)Nc2cnn(C)c2Cl)C1=O [356′]	5 (Level 5: growth control rate greater than or equal to 50% and less than 70%)	–	–	83	–	57	–
CN1C[C@H](c2ccc3c(c2)OC(F)(F)O3)[C@@H](C(=O)Nc2cnn(C)c2Cl)C1=O [357′]	–	–	–	65	50	80	–
CCn1ncc(NC(=O)[C@H]2C(=O)N(C)C[C@@H]2c2cc(C)cc(C)c2)c1Cl [418′]	9	9	–	–	–	–	Tomato gray mold/% (mycelium growth inhibition rate) ([9]; 500 ppm): 96%
C#CCn1ncc(NC(=O)[C@H]2C(=O)N(C)C[C@@H]2c2cc(C)cc(C)c2)c1Cl [420′]	9	9	0	–	–	–	Mythimna separata/% (mortality) [10]: 90%; Spodoptera frugiperda/% (mortality) [11]: 75%
Cc1cc(C)cc([C@H]2CN(C)C(=O)[C@@H]2C(=O)Nc2cnn(C)c2Br)c1 [425′]	9	9	0	55	56	68	–
Cc1cc(Cl)cc([C@H]2CN(C)C(=O)[C@@H]2C(=O)Nc2cnn(C)c2Cl)c1 [504′]	–	–	–	80	83	–	Echinochloa crusgalli activity level (growth control rate) [1, 12]: 9; Echinochloa phyllopogon activity level (growth control rate) [2, 12]: 9; Huaidao (rice cultivar) plant damage level (growth control rate) [8, 12]: 0
